Laboratory results: patent publication US11833137B2, “Substituted chromenones, IRE1 inhibitors, and methods of using same” (The Wistar Institute, priority 2018, dated 2023)
Entries after “also recorded” stand apart in the source; their conditions may differ.

Key:
5TGM1 cells = assay: Cell proliferation XTT assay, 5TGM1; format: cell-based, mouse
Experimental: 5TGM1 cells were suspended in phenol red-free RPMI media, seeded in 96-well cell culture plates, and treated with indicated IRE1 inhibitors (20 μM, unless indicated otherwise). At indicated time points, cells were spun down and cell proliferation was assessed by XTT assays (Roche) according to the manufacturer's instructions. Briefly, 50 μl XTT labeling reagent, 1 μl electron-coupling reagent, and 100 μl phenol red-free RPMI media were combined and applied to each well of the 96-well plates. Cells were incubated for 4 h in a CO2 incubator to allow for the yellow tetrazolium salt XTT to be cleaved by mitochondrial dehydrogenases of metabolically active cells to form the orange formazan dye, which can be quantified at 492 nm using a BioTek SYNERGY™ NEO2 Multimode Reader.

[1] = tested on: XBP-1s expression, MEC2 cells; assay: XBP-1s immunoblot in MEC2 cells; format: cell-based, human; details: 20 μM 16 h, then hydrogen peroxide 4 h
Experimental: (§1) FIGS. 5A-5J illustrate the finding that installation of a boronate cage cleavable by H2O2 stabilizes the 1,3-dioxane acetal protective group of D-F07 to allow for temporal inhibition of XBP-1s upon contact with H2O2. (FIG. 5A) A scheme showing that installation of a boronate-caged group stabilizes the 1,3-dioxane acetal protective group to allow for H2O2-mediated release of intact D-F07. (FIG. 5B) The fluorescence of BC-D-F07a (2.5 μM in the DMSO/PBS solution (v/v=1:99), Ex=360 nm) increases upon incubation with 0 to 200 μM hydrogen peroxide at room temperature for 1 h. (FIG. 5C) The fluorescence of BC-D-F07b (2.5 μM in the DMSO/PBS solution (v/v=1:99), Ex=360 nm) increases upon incubation with 0 to 2 mM hydrogen peroxide at 37° C. for 1 h. […] I0 was the initial fluorescence intensity of D-F07, BC-D-F07a or BC-D-F07b at 0 h. (FIG. 5E) The levels of hydrogen peroxide produced by 5TGM1, 72-h LPS-stimulated primary CLL, MEC2, and WaC3 cells were measured by Amplex Red with or without the addition of extracellular catalase (500 U/mL). (FIG. 5F) 5TGM1 cells were treated with BC-D-F07a at increasing concentrations for 24 h, lysed, and analyzed for the expression of indicated proteins by immunoblots. […] Cells were lysed and analyzed for the expression of indicated proteins by immunoblots. […] Cells were lysed and analyzed for the expression of indicated proteins by immunoblots. […]

[2] = tested on: XBP-1s expression, 5TGM1 cells; assay: XBP-1s immunoblot in 5TGM1 multiple myeloma cells; format: cell-based, mouse
Experimental: 5TGM1 mouse multiple myeloma cells, primary mouse B cells, primary mouse Eμ-TCL1 CLL cells, and human CLL cell lines (MEC2 and WaC3) were cultured at 37° C. in a 5% CO2 incubator using RPMI 1640 media (Gibco) supplemented with 10% heat-inactivated FBS, 2 mM L-glutamine, 100 U/mL penicillin G sodium, 1 mM sodium pyruvate, 0.1 mM non-essential amino acids, 100 μg/mL streptomycin sulfate and 0.1 mM β-mercaptoethanol (β-ME).
Cells were lysed using RIPA buffer (10 mM Tris-HCl, pH 7.4, 150 mM NaCl, 1% NP-40, 0.5% sodium deoxycholate, 0.1% SDS, and 1 mM EDTA) supplemented with protease inhibitors (Roche). Protein concentrations were determined by BCA assays (Pierce).
Samples were boiled in SDS-PAGE sample buffer (62.5 mM Tris-HCl, pH 6.8, 2% SDS, 10% glycerol, 0.1% bromophenol blue) with β-ME and analyzed by SDS-PAGE. Proteins were transferred to nitrocellulose membranes, blocked in 5% nonfat milk (wt/vol in PBS), and immunoblotted with indicated primary antibodies and appropriate horseradish peroxidase-conjugated secondary antibodies. Immunoblots were developed using Western Lighting Chemiluminescence Reagent (PerkinElmer).
To develop inhibitors with improved potency to target the IRE1/XBP-1 pathway, tricyclic chromenone-based IRE1 RNase inhibitors with different amine group (R^1) were synthesized and compared: allyloxycarbonyl (alloc) in B-H09 (1), —H in C-B06 (2), and —CH3 in C-D06 (3) (FIG. 1A). 5TGM1 multiple myeloma cells were chosen to evaluate inhibitory effects of these inhibitors because they have constitutively activated IRE1/XBP-1 pathways.

[3] = tested on: XBP-1s expression, CD5+ CLL cells from Eμ-TCL1 mice; assay: XBP-1s immunoblot in primary CLL cells; format: cell-based, mouse; details: LPS-stimulated, 20 μM 16 h, then 0, 50 or 100 μM hydrogen peroxide 4 h
Experimental: as §1

MEC2 cells = assay: Cell proliferation XTT assay, MEC2; format: cell-based, human
[4] = Fluorescence stability (decomposition) in aqueous solution; format: physicochemical; details: aqueous solution, 37° C., 0 to 48 h, versus D-F07
Experimental: (FIG. 2B) 5TGM1 cells were treated with DMSO or with 20 μM 2, 4, 3, or 7 dissolved in DMSO for 3 days and subjected to XTT assays. Percentages of growth were determined by comparing treated groups with control groups (DMSO). Each data point derived from four independent groups receiving exactly the same treatment was plotted as mean±SD. Results are representative of three independent experiments. […] The values of I/I0 were plotted as a function of time and shown in the inset. I0 was the initial fluorescence intensity of 4 at 0 h. […] The values of I/I0 were plotted as a function of time and shown in the inset. I0 was the initial fluorescence intensity of 5 at 0 h. […] (FIG. 2G) The decomposition rates of 7 and 8 were plotted as a function of time in RPMI media incubated at 37° C. Aliquots were analyzed by HPLC and the peaks integrated.
FIGS. 5A-5J illustrate the finding that installation of a boronate cage cleavable by H2O2 stabilizes the 1,3-dioxane acetal protective group of D-F07 to allow for temporal inhibition of XBP-1s upon contact with H2O2. (FIG. 5A) A scheme showing that installation of a boronate-caged group stabilizes the 1,3-dioxane acetal protective group to allow for H2O2-mediated release of intact D-F07. (FIG. 5B) The fluorescence of BC-D-F07a (2.5 μM in the DMSO/PBS solution (v/v=1:99), Ex=360 nm) increases upon incubation with 0 to 200 μM hydrogen peroxide at room temperature for 1 h. (FIG. 5C) The fluorescence of BC-D-F07b (2.5 μM in the DMSO/PBS solution (v/v=1:99), Ex=360 nm) increases upon incubation with 0 to 2 mM hydrogen peroxide at 37° C. for 1 h. […] I0 was the initial fluorescence intensity of D-F07, BC-D-F07a or BC-D-F07b at 0 h. (FIG. 5E) The levels of hydrogen peroxide produced by 5TGM1, 72-h LPS-stimulated primary CLL, MEC2, and WaC3 cells were measured by Amplex Red with or without the addition of extracellular catalase (500 U/mL). (FIG. 5F) 5TGM1 cells were treated with BC-D-F07a at increasing concentrations for 24 h, lysed, and analyzed for the expression of indicated proteins by immunoblots. (FIG. 5G) CD5+ CLL cells purified from spleens of Eμ-TCL1 mice were stimulated with […], subsequently treated with BC-D-F07a at 20 μM for 16 h, and then incubated with hydrogen peroxide at indicated concentrations for another 4 h. Cells were lysed and analyzed for the expression of indicated proteins by immunoblots. […] Cells were lysed and analyzed for the expression of indicated proteins by immunoblots. […] Percentages of growth were determined by comparing treated groups with control groups (DMSO). […]
UV-vis and fluorescence spectra were carried out on a BioTek SYNERGY™ NEO2 instrument (96 well plate).

WaC3 cells = assay: Cell proliferation XTT assay, WaC3; format: cell-based, human; details: 20 μM for a course of 3 days
[5] = In vivo pharmacokinetics, serum fluorescence; parameters: species or system Eμ-TCL1 mouse; details: single intraperitoneal injection of 58 mg/kg D-F07
Experimental: In vivo pharmacokinetics studies were carried out by intraperitoneally injecting 58 mg/kg D-F07 (347.36 Daltons) or 96 mg/kg TC-D-F07 (577.52 Daltons) into each Eμ-TCL1 mouse to achieve equivalent molar concentrations in the sera. Blood was collected via submandibular bleeding into an Eppendorf tube at 0.25-, 0.5-, 1-, and 1.5-h time points after a single injection. Blood samples were stored at room temperature for 5 min, placed on wet ice for 5 min, and centrifuged at 15,000 rpm/min for 5 min to obtain sera. D-F07 in sera was quantified by measuring the fluorescence intensity using a BioTek SYNERGY™ NEO2 Multimode Reader (Ex/Em: 350/456 nm). Each fluorescent reading value was adjusted by subtracting the background from serum samples without D-F07. D-F07 concentrations were calculated by fitting individual data points in a linear standard equation, y=bx+c. The D-F07 standard curve was created by measuring the fluorescence intensity in serum samples containing serially diluted D-F07. Data derived from three mice receiving the same treatment were plotted as means±SEM.

Compound	growth suppression (XTT) (5TGM1 cells; 20 μM for 2 days)	suppression of XBP-1s [1]	suppression of XBP-1s ([2]; increasing concentrations, 24 h)	suppression of XBP-1s expression [3]	growth inhibition (XTT) (MEC2 cells; 20 μM for 2 days)	hydrolysis of 1,3-dioxane acetal by fluorescence decay [4]	growth inhibition / cytotoxicity (XTT) (5TGM1 cells; 20 μM for a course of 3 days)	growth suppression (XTT) (WaC3 cells)	suppression of XBP-1s after removal of compound from media ([2]; 10 μM 4 h, washed, UV 10 min, 8 h culture)	suppression of XBP-1s expression, long term ([2]; 10 μM for a course of 3 days)	overall comparison of inhibition of IRE-1 / XBP-1s expression in whole cells ([2]; summary statement)	peak serum concentration [5] [ng/mL]	cytotoxicity / growth inhibition (XTT) (MEC2 cells; indicated concentrations, 24 h)
COc1cc2c3c(c(=O)oc2c(C2OCCCO2)c1OCc1ccc(B2OC(C)(C)C(C)(C)O2)cc1)CN(C)CC3 [BC-D-F07a, 7-(1,3-dioxan-2-yl)-9-methoxy-3-methyl-8-((4-(4,4,5,5-tetramethyl-1,3,2-dioxaborolan-2-yl)benzyl)oxy)-1,2,3,4-tetrahydro-5H-chromeno[3,4-c]pyridin-5-one]	could not efficiently oxidize BC-D-F07a, inhibit XBP-1s, or suppress cell growth	more efficient suppression of XBP-1s	dose-dependent suppression of XBP-1s	suppress the expression of XBP-1s	less capable than D-F07 in inhibiting growth of MEC2 cells	stabilized the 1,3-dioxane acetal protecting group							
COc1cc2c3c(c(=O)oc2c(C2OCCCO2)c1O)CN(C)CC3 [D-F07, 7-(1,3-dioxan-2-yl)-8-hydroxy-9-methoxy-3-methyl-1,2,3,4-tetrahydro-5H-chromeno[3,4-c]pyridin-5-one]							higher cytotoxicity than 3 and 7	initially more potent than 7 and 8 in suppressing WaC3 cell growth; also recorded: suppressed WaC3 cell growth potently	failed to suppress XBP-1s continuously	better long-term efficacy in suppressing the expression of XBP-1s than 7 and 10	most potent effect in inhibiting the expression of XBP-1s in whole cells	10203	not cytotoxic to MEC2 cells
